Calls of active or inactive are those of the source.
Tests used:
Assay type in all cases: functional
[1] = biological target: T1, Apoptotic protease-activating factor 1 (Homo sapiens, UniProt O14727)
T1 sequence (O14727 whole entry): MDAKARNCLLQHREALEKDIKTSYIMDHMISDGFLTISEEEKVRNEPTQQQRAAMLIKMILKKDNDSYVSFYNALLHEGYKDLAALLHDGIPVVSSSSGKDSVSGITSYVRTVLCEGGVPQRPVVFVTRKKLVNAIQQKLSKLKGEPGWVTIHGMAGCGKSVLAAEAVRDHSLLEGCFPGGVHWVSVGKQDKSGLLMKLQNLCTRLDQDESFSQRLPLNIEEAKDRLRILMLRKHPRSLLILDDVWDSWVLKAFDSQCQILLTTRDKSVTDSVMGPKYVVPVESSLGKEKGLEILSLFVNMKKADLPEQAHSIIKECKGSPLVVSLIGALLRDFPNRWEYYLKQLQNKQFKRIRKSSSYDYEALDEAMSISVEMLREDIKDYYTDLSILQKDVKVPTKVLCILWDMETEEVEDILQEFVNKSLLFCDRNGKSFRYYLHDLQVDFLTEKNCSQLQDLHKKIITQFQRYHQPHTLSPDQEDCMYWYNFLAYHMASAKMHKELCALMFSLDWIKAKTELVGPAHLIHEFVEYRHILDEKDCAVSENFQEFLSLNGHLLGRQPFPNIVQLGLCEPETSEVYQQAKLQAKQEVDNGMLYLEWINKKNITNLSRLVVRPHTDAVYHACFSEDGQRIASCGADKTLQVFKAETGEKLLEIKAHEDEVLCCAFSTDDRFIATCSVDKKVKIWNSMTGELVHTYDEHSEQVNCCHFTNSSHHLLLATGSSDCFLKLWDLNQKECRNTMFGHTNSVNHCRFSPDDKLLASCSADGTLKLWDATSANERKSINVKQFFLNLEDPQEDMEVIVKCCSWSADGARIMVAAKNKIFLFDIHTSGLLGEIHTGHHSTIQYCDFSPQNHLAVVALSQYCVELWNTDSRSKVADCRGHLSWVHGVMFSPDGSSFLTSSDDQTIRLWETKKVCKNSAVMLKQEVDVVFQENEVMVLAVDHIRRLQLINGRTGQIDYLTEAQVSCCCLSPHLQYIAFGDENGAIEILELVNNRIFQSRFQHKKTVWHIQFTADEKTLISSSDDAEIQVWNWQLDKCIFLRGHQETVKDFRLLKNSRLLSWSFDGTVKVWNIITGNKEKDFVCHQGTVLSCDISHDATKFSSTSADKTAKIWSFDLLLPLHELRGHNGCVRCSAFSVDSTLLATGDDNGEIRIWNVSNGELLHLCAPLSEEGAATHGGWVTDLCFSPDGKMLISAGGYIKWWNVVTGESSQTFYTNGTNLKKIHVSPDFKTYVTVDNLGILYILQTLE

[2] = biological target: T2, Replicative DNA helicase DnaB (Mycobacterium tuberculosis, UniProt P9WMR3); test: DnaB intein splicing inhibitors, dose response, biochemical, cell-free fluorescence (AID 449749)
T2 sequence (P9WMR3 whole entry): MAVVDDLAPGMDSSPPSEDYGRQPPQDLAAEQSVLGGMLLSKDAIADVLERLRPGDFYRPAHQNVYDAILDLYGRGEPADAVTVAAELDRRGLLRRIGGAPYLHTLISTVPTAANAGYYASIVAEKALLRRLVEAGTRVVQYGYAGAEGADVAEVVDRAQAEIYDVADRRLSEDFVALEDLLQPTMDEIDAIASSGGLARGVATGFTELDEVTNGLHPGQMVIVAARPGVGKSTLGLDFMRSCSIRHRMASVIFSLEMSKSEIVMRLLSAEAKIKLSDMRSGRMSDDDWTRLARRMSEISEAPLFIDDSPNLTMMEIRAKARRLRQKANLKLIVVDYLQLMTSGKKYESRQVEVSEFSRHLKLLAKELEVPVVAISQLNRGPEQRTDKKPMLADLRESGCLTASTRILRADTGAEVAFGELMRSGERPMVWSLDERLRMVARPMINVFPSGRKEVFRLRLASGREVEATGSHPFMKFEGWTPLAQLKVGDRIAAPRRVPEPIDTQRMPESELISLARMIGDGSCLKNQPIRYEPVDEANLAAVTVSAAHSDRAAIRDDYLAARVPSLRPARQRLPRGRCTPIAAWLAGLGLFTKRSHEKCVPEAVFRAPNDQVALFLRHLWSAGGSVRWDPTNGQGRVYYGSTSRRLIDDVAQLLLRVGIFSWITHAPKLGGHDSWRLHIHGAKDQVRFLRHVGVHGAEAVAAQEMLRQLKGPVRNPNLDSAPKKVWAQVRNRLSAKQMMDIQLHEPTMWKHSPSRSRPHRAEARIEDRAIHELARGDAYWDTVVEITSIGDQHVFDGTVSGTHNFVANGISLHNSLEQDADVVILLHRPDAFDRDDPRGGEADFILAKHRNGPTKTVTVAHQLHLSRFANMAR

Protein RecA = biological target: T3, Protein RecA (Mycobacterium tuberculosis, UniProt P9WHJ3); test: Fluorescence Cell-Free Homogeneous Dose Retest to Identify Inhibitors of RecA-Intein Splicing Activity. [Related pubchem assays (depositor defined):AID2097, AID2223, AID489010, AID492950]
T3 sequence (P9WHJ3 whole entry): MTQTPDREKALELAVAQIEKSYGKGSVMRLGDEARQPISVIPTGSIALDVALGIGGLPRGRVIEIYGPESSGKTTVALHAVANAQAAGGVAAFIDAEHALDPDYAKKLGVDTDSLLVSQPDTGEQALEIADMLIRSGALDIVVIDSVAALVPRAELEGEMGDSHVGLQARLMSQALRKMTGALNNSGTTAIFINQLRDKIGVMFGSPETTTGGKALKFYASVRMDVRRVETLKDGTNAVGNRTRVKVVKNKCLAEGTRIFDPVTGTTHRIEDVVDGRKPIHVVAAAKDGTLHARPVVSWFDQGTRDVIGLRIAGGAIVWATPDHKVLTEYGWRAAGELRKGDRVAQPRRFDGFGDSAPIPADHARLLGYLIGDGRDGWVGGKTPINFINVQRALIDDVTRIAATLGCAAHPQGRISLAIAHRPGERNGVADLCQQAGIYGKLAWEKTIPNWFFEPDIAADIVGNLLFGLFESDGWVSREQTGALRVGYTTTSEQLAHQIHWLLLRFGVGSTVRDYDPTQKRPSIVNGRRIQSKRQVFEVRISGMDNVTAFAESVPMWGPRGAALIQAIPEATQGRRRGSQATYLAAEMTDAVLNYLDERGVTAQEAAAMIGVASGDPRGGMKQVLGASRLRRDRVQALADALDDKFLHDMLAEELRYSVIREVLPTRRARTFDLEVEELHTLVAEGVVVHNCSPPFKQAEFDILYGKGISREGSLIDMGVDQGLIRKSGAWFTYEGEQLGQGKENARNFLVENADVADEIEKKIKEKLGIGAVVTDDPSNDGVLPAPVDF

SMILES: COc1cc(OC)c(NC2=CC(=O)C(=O)c3ccccc32)cc1Cl
- IC50 [1]: 2120 nM (active)

SMILES: COc1cc2c(cc1OC)-c1c(OC)c(OC)cc3c1C(C2)N(C)CC3 (centres undefined)
- AC50 [2]: 550 nM (active)
- EC50 (Protein RecA): 614 nM (active)

SMILES: CCc1ccc(S(=O)(=O)/N=C2\C=C(Nc3cccc(C(=O)O)c3)C(=O)c3ccccc32)cc1
- AC50 [2]: 276 nM (active)
- IC50 [1]: 7070 nM (active)
- EC50 (Protein RecA): 216 nM (active)

SMILES: CCCCCCCCCCOC(=O)Cn1c(COc2cccc(OC)c2)[n+](C)c2ccccc21
- AC50 [2]: 4320 nM (active)
- IC50 [1]: 10200 nM (active)
- EC50 (Protein RecA): 9700 nM (active)
